# Data published in patent US9439975B2, “Small efficient cell penetrating peptides derived from the scorpion toxin maurocalcine” (Commissariat A L'Energie Atomique Et Aux Energies …, priority 2011, dated 2016).
# Square brackets hold non-standard residues; d marks the D form. Ends that are not written are not given here. Abu = CC[C@H](N)C(=O)O
# Key:
# cells = conditions: earlier reports; cited from earlier work
# [1] = upon intravenous injection; cited from earlier work
# [2] = in vitro and in vivo; cited from earlier work
# [3] = biological target: ryanodine receptor type 1 (RyR1) (Oryctolagus cuniculus, UniProt P11716); conditions: earlier reports; cited from earlier work
# Chain of ryanodine receptor type 1 (RyR1) (P11716 whole entry): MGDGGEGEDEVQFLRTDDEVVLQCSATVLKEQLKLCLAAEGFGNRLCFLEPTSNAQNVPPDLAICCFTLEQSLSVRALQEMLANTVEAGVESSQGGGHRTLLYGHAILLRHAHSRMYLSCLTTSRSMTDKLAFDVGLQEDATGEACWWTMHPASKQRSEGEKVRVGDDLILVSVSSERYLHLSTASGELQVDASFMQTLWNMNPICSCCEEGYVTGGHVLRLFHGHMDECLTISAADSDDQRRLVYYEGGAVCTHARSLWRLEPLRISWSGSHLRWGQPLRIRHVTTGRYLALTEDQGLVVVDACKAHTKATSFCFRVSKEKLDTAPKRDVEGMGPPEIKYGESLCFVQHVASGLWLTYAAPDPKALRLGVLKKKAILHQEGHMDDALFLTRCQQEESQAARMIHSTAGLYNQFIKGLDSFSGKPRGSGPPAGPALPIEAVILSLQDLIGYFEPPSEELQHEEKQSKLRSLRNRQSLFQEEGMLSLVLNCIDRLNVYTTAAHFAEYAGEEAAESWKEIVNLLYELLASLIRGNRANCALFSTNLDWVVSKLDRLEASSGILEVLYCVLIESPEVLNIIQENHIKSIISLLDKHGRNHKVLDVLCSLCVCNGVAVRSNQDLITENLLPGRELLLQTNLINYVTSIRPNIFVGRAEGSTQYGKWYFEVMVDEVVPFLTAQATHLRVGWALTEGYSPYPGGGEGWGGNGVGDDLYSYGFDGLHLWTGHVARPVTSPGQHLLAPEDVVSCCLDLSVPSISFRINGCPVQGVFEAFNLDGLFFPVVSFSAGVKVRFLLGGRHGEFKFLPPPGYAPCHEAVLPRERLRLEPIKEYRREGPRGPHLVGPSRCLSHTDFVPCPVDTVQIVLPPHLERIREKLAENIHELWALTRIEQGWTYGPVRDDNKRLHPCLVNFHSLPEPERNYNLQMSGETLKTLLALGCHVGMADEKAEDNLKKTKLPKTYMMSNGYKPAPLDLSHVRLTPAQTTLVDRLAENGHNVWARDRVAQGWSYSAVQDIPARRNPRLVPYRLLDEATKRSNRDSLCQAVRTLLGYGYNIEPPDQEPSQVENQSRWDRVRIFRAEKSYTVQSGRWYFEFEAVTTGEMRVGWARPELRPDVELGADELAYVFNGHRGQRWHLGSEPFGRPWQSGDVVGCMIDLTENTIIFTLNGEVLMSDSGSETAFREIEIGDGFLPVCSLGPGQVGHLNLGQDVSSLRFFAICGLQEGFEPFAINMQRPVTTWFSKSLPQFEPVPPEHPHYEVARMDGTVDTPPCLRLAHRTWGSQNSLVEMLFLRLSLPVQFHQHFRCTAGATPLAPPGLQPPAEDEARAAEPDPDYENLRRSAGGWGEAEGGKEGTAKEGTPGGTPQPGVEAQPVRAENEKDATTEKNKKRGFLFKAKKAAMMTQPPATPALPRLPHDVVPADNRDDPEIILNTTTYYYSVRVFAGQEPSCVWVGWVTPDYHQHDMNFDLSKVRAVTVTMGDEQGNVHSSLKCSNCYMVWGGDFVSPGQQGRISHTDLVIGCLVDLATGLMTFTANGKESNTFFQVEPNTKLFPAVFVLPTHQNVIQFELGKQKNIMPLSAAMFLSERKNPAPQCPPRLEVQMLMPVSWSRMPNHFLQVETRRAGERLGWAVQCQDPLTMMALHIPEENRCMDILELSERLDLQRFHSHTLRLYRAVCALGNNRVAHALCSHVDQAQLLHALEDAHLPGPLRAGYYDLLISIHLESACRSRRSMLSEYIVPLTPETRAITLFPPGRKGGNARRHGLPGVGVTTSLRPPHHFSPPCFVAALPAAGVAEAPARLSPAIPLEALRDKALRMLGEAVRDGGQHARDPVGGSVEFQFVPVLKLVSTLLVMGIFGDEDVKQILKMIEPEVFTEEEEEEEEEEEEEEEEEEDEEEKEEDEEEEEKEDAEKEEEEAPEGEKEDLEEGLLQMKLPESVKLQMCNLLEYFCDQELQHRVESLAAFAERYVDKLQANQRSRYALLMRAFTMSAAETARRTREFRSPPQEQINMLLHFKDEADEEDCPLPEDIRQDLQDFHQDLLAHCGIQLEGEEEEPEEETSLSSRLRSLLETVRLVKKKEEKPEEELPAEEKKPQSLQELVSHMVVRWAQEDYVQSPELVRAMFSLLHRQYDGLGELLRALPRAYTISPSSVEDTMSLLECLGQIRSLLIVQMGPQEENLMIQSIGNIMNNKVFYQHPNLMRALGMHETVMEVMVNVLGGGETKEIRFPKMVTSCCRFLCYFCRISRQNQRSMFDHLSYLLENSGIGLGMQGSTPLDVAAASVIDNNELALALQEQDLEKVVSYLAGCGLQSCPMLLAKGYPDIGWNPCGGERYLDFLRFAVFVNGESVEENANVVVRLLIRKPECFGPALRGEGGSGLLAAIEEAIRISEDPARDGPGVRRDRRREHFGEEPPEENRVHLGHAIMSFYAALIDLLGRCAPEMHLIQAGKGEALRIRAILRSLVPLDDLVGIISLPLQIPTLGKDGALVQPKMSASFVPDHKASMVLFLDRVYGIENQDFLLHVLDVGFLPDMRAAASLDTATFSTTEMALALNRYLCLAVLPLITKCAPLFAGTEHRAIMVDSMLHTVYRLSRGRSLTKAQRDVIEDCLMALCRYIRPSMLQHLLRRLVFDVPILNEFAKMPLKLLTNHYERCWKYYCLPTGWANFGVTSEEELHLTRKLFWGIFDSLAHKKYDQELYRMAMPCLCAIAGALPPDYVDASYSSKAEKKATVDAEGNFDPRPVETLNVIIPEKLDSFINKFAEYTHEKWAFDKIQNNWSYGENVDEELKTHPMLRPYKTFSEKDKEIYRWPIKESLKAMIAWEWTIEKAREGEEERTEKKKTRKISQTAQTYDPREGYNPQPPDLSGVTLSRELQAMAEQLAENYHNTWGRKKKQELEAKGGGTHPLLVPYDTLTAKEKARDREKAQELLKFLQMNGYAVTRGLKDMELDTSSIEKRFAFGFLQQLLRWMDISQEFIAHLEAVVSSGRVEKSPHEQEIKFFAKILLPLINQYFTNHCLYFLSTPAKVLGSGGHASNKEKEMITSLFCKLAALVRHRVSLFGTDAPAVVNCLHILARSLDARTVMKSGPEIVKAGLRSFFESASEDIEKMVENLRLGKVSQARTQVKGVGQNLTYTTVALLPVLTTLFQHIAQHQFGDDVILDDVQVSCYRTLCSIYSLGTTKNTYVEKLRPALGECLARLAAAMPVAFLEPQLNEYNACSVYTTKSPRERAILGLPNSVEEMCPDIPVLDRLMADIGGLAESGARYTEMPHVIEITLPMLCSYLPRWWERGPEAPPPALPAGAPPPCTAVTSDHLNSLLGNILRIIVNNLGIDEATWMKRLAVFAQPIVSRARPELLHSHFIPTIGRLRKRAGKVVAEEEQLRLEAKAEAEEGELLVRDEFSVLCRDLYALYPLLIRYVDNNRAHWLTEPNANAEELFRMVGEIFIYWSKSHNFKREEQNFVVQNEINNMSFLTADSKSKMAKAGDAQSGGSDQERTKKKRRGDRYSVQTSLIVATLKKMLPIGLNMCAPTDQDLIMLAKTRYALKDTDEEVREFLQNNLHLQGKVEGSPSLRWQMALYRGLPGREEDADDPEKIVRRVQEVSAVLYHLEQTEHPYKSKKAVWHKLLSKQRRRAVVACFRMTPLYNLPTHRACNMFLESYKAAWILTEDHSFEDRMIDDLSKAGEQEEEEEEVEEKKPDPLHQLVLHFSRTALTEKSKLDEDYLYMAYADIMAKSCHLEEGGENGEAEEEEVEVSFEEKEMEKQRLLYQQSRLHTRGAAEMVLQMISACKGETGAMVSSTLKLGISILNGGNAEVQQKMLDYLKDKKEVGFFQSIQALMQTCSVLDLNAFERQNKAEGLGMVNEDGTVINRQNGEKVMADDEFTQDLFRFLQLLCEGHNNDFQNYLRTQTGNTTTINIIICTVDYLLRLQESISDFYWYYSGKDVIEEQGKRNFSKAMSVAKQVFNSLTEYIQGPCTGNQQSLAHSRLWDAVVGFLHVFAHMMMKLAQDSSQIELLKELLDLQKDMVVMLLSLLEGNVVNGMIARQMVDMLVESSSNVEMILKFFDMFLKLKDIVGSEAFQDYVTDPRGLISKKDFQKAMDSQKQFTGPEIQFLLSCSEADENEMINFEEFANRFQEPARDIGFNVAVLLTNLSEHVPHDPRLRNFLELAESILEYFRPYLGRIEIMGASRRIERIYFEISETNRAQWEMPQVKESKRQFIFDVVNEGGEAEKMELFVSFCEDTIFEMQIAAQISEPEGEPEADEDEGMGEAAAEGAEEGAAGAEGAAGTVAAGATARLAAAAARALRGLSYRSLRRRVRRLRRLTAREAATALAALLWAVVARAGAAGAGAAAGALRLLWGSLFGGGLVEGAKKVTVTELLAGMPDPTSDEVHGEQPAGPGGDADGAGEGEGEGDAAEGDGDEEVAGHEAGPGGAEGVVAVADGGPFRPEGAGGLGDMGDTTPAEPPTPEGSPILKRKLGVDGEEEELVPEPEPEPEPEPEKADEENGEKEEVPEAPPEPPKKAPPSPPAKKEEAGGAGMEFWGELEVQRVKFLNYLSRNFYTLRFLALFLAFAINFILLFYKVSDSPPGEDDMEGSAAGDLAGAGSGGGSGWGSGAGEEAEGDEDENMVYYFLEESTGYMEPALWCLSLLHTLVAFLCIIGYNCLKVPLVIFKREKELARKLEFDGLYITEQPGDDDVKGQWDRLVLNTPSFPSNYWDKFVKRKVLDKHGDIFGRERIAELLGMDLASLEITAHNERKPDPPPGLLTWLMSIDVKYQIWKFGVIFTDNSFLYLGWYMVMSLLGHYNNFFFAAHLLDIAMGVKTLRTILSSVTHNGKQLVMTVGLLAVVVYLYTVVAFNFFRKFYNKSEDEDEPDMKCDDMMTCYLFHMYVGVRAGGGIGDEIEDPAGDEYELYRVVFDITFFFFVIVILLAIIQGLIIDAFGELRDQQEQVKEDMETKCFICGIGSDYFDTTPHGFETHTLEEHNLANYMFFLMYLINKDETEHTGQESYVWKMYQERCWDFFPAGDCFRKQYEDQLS
# proteoglycans = conditions: cited from earlier work
# CHO cells = experiment: MTT assay of cell viability; format: cell-based, Chinese hamster; conditions: 1 or 10 μM peptide, 24 hrs
# Method: Cells were seeded into 96-well micro plates at a density of approximately 8×10^4 cells/well. […] Control wells containing cell culture medium alone or with cells, both without peptide addition, were included in each experiment. 0.1% saponin was used as toxic agent for comparison. The cells were then incubated with 3-(4, 5-dimethylthiazol-2-yl)-2, 5-diphenyl-tetrazolium bromide (MTT) for 30 min. Conversion of MTT into purple colored MTT formazan by the living cells indicates the extent of cell viability. The crystals were dissolved with dimethyl sulfoxide (DMSO) and the optical density was measured at 540 nm using a microplate reader (Biotek ELx-800, MANDEL SCIENTIFIC INC.) for quantification of cell viability. All assays were run in triplicates.
Substance,cell penetration efficiency (cells),stability in vivo [1],associated toxicity [2],pharmacological action on / interaction with RyR1 [3],affinity of interaction with proteoglycans (proteoglycans),"cell toxicity, comparison (CHO cells)"
GDCLPHLKLCKENKDCCSKKCKRRGTNIEKRCR [MCa],penetrates into cells at very low concentrations,over 24 hrs,almost no associated toxicity,exquisite pharmacological activator,micromolar range,–
KDaaSKKaKRRGC (KD[Abu][Abu]SKK[Abu]KRRGC) [MCaUF14-25-C],–,–,–,–,–,slightly more toxic than 1 μM except for MCaUF14-25-C
